Results: EP2322149A1, “Methods and compositions for the treatment of ischemia” (Universidad del Pais Vasco, priority 2009, dated 2011)
“Also recorded” adds a separate entry of the source. Where a name gives a salt, the structure may show the parent alone. Read-outs that look alike come from different tables or passages of the source.

How the values were obtained:
[1] = system: cultured optic nerve oligodendrocytes; test: ATP release measurement (luciferin/luciferase) in oligodendrocyte cultures after OGD; format: cell-based, Sprague-Dawley rats; conditions: 1h OGD in the presence of ARL67156; CBX 20 µM, FFA 100 µM, MFQ 1 nM (figure legend)
Experimental: (§1) Primary cultures of oligodendrocytes derived from optic nerves of 12 day-old Sprague-Dawley rats were obtained as previously described (Matute et al., 1997 Proc Natl Acad Sci U S A 94:8830-8835.).Cells were maintained at 37°C and 5% CO2 in a chemically defined medium (Matute et al., 1997 Proc Natl Acad Sci U S A 94:8830-8835.). After 2-4 days in vitro, cultures were composed of at least 98% 04/Ga1C^+ cells. No microglial cells were detected in these cultures. […] Cell death was determined 24h later using calcein-AM (Invitrogen) as previously described (Matute et al., 1997 Proc Natl Acad Sci U S A 94:8830-8835.). Antagonists were present during in vitro ischaemia and during the next 24h incubation period. […] To assay the levels of reactive oxygen species (ROS), cells were loaded with 40 µM 2',7'- dichlorodihyfluoresceindiacetate (DCFDA; Invitrogen) and 1 µM calcein red-orange (Molecular Probes) immediately after OGD. Calcein was used to quantify the number of cells within the reading field. Fluorescence was measured as above and values were plotted as the percentage of DCFDA/calcein red-orange fluorescence versus control. The changes in mitochondrial membrane potential were monitored with 5,5',6,6'-tetrachloro-1,1',3,3'-tetraethylbenzimidazolcarbocyanine iodide (JC-1; Molecular Probes). Immediately after OGD, cells were loaded with JC-1 (3 µM) at 37°C for 30 min. The changes in the membrane potential were calculated as the red (emission at 590)/green (emission at 520) ratio in each condition and results were normalized to control.
(§2) ATP levels were measured using a Luciferin/Luciferase assay kit (Invitrogen) after 1h normoxia or OGD in oligodendrocyte cultures and in isolated optic nerves according to the manufacturer's instructions. The luminescence was measured with a luminometer Synergy-HT (BioTek) with an integration time of 3 sec. Because ATP was measured in the culture medium and in the solution bathing optic nerves, the concentration of ATP at the extracellular surface, near the vicinity of the receptor was underestimated (Joseph et al., 2003. J Biol Chem 278:23331-23342). The limit of ATP detection was 1 nM and luminescence was linear with increasing ATP concentrations to 1000 nM. The total amount of ATP was calculated according to standard curves and ATP release was expressed in percentage vs control.

[2] = system: optic nerves; test: Optic nerve ischaemia (OGD), tissue damage by LDH release; parameters: species or system rats
Experimental: (§3) After 1h OGD at 37°C, the medium was replaced with fresh solution containing glucose and equilibrated with 95% O2, 5% CO2 and the nerves were incubated for another 2h at 37°C to simulate reperfusion.

[3] = system: optic nerve oligodendrocytes; test: Oxygen and glucose deprivation (OGD) cell death in oligodendrocyte cultures (calcein-AM); format: cell-based, Sprague-Dawley rats; conditions: 1h OGD, calcein 24h later; PPADS 100 µM, BBG 50 nM, CNQX 30 µM, APV 100 µM, apyrase 20 U/ml, ARL67156 100 µM, CBX 20 µM, FFA 100 µM, MFQ 1 nM
Experimental: as §1

[4] = system: optic nerve; test: ATP release measurement (luciferin/luciferase) in isolated optic nerves after OGD; parameters: species or system rats; conditions: MFQ 1 µM, CBX 100 µM
Experimental: as §2, §3

[5] = target: T1, P2X7 receptors in oligodendrocytes (Rattus norvegicus, UniProt Q64663); test: ATP-evoked inward currents in whole-cell clamped oligodendrocytes; format: cell-based, Sprague-Dawley rats; conditions: -70 mV; CBX 20 µM, MFQ 1 nM
T1 construct: ATP (1 mM)-evoked inward currents in whole-cell clamped oligodendrocytes at -70 mV; endogenous in cells; host or cells: primary rat optic nerve oligodendrocytes
T1 sequence (Q64663 1-595): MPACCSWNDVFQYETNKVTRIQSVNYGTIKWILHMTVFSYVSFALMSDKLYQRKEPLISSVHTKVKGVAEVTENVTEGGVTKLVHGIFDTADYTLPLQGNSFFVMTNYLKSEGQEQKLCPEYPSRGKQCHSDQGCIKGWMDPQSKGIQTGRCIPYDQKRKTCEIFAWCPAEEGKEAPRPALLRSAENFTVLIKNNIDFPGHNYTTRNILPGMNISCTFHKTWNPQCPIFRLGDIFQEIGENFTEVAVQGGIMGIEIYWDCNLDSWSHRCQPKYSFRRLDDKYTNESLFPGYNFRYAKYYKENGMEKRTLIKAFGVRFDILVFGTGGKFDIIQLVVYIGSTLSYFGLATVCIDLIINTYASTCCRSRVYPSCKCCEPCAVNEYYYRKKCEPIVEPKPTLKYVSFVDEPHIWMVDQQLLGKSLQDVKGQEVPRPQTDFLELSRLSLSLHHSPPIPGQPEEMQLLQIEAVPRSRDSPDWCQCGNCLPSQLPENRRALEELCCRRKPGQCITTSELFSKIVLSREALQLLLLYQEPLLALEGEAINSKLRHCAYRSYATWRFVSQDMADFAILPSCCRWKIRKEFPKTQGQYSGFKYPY
Experimental: Primary cultures of oligodendrocytes derived from optic nerves of 12 day-old Sprague-Dawley rats were obtained as previously described (Matute et al., 1997 Proc Natl Acad Sci U S A 94:8830-8835.).Cells were maintained at 37°C and 5% CO2 in a chemically defined medium (Matute et al., 1997 Proc Natl Acad Sci U S A 94:8830-8835.). After 2-4 days in vitro, cultures were composed of at least 98% 04/Ga1C^+ cells. No microglial cells were detected in these cultures. […] Cell death was determined 24h later using calcein-AM (Invitrogen) as previously described (Matute et al., 1997 Proc Natl Acad Sci U S A 94:8830-8835.). […] Calcein was used to quantify the number of cells within the reading field. Fluorescence was measured as above and values were plotted as the percentage of DCFDA/calcein red-orange fluorescence versus control. The changes in mitochondrial membrane potential were monitored with 5,5',6,6'-tetrachloro-1,1',3,3'-tetraethylbenzimidazolcarbocyanine iodide (JC-1; Molecular Probes). […] The changes in the membrane potential were calculated as the red (emission at 590)/green (emission at 520) ratio in each condition and results were normalized to control.
Whole cell recordings were performed at room temperature and at a holding membrane potential of -70 mV. […] Data were analyzed with Excel and Prism software.

[6] = system: optic nerve oligodendrocytes; test: Whole-cell recording of ischaemic inward current in cultured oligodendrocytes (chemical ischaemia); format: cell-based, Sprague-Dawley rats
Experimental: After 2-4 days in vitro, cultures were composed of at least 98% 04/Ga1C^+ cells. No microglial cells were detected in these cultures. […] Cell death was determined 24h later using calcein-AM (Invitrogen) as previously described (Matute et al., 1997 Proc Natl Acad Sci U S A 94:8830-8835.). Antagonists were present during in vitro ischaemia and during the next 24h incubation period. […] Calcein was used to quantify the number of cells within the reading field. Fluorescence was measured as above and values were plotted as the percentage of DCFDA/calcein red-orange fluorescence versus control. […] Molecular Probes). […] The changes in the membrane potential were calculated as the red (emission at 590)/green (emission at 520) ratio in each condition and results were normalized to control. Whole cell recordings were performed at room temperature and at a holding membrane potential of -70 mV. Extracellular bath solution with a pH of 7.3 contained (in mM): […] Patch clamp pipettes (3-5 MΩ) were filled with internal solution at a pH of 7.3 containing (in mM): CsCI 140, CaC12 2, MgC12 2, HEPES 10, EGTA 11, Na-ATP 2. For electrophysiology monitoring, ischaemia was induced chemically by using the glycolytic blocker iodoacetate (1 mM) and the oxidative phosphorylation inhibitor antimycin (2.5 μM), and omitting glucose because recordings were performed in an open chamber where O2 can diffuse to the cells (Káradóttir et al., 2005). Recordings of ATP currents were performed in divalent cation-free extracellular solutions, obtained by omitting Ca^2+ and Mg^2+, to potentiate P2X-mediated responses (Matute et al., 1997 Proc Natl Acad Sci U S A 94:8830-8835.). […] Molecular Probes, Inc., Eugene, OR) in culture medium for 30 min at 37 °C. Experiments were carried out in a coverslip chamber continuously perfused with a buffer containing 20 mM HEPES, 2 mM CaC12, 10 mM glucose in HBSS at 1 ml/min. The perfusion chamber was mounted on the stage of a Zeiss inverted epifluorescence microscope (Axiovert 35), equipped with a 150 W xenon lamp Polychrome IV (TILL Photonics GMBH) and a Plan Neofluar 40x oil immersion objective (Zeiss, Germany). Cells were visualized with a high resolution digital B/W CCD camera (ORCA; Hamamatsu Photonics Iberica, Barcelona, Spain) and image acquisition and data analysis were carried out using the AquaCosmos software program (Hamamatsu Photonics Iberica). Images were acquired every 30 ms at 37°C and ischaemia was induced as above. […] At the end of the assay, in situ calibration was carried out with the successive addition of […] and 2M Tris/50 mM EGTA, pH 8.5. Data were analyzed with Excel and Prism software.

[7] = system: optic nerve
[8] = system: optic nerve oligodendrocytes; test: Ca2+ imaging (fura-2) of oligodendrocytes during chemical ischaemia; format: cell-based, Sprague-Dawley rats
Experimental: After 2-4 days in vitro, cultures were composed of at least 98% 04/Ga1C^+ cells. No microglial cells were detected in these cultures. […] Cell death was determined 24h later using calcein-AM (Invitrogen) as previously described (Matute et al., 1997 Proc Natl Acad Sci U S A 94:8830-8835.). Antagonists were present during in vitro ischaemia and during the next 24h incubation period. […] Calcein was used to quantify the number of cells within the reading field. Fluorescence was measured as above and values were plotted as the percentage of DCFDA/calcein red-orange fluorescence versus control. […] Molecular Probes). […] The changes in the membrane potential were calculated as the red (emission at 590)/green (emission at 520) ratio in each condition and results were normalized to control. Whole cell recordings were performed at room temperature and at a holding membrane potential of -70 mV. Extracellular bath solution with a pH of 7.3 contained (in mM): […] Patch clamp pipettes (3-5 MΩ) were filled with internal solution at a pH of 7.3 containing (in mM): CsCI 140, CaC12 2, MgC12 2, HEPES 10, EGTA 11, Na-ATP 2. […] Data were analyzed with Excel and Prism software.

[9] = target: T2, P2X7 (Homo sapiens, UniProt Q99572); conditions: cited from earlier work
T2 sequence (Q99572 1-595): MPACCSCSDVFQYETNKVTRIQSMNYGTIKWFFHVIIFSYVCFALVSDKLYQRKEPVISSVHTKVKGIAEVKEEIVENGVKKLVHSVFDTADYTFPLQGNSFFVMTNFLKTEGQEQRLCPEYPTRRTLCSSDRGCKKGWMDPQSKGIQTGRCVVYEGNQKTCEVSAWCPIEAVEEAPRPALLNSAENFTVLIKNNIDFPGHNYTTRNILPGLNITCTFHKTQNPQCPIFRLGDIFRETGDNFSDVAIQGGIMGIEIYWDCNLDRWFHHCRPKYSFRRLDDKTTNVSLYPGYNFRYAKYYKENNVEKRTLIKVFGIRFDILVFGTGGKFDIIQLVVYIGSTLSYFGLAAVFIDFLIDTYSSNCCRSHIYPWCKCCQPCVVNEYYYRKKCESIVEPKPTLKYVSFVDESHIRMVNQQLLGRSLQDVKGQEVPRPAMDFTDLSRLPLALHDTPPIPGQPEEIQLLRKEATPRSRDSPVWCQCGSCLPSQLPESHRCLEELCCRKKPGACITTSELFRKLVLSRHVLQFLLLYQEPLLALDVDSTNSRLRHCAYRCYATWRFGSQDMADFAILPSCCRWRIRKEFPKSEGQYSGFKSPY

[10] = P28 rat optic nerves, 1h OGD + 2h reperfusion, PPADS 1 mM, BBG 50 nM, oATP 1 mM, apyrase 20 U/ml, MFQ 1 µM, CBX 100 µM, FFA 1 mM

Row | ATP levels after OGD [1] | ATP levels during OGD [4] | ATP (1 mM)-evoked inward currents [5] | Structure (SMILES) | ischaemia-induced damage to optic nerves (LDH release) [2, 10] | OGD-induced oligodendrocyte cell death [3] | OGD-induced damage at all developmental stages [2] | ischaemia-induced damage to optic nerves (LDH release) [2] | ischaemic inward currents [6] | recovery of axon function (CAP area) after the ischaemic insult [7] | increase in [Ca2+]i caused by ischaemia [8] | IC50 [9] [µM]
1 | significantly reduced | reduced | not reduced | CC1(C)[C@@H](OC(=O)CCC(=O)O)CC[C@]2(C)[C@H]3C(=O)C=C4[C@@H]5C[C@@](C)(C(=O)O)CC[C@]5(C)CC[C@@]4(C)[C@]3(C)CC[C@@H]12 [CBX] | reduced; also recorded: attenuated | inhibited |  |  |  |  |  | 
2 | significantly reduced | reduced | not reduced | OC(c1cc(C(F)(F)F)nc2c(C(F)(F)F)cccc12)C1CCCCN1 [MFQ, [8-bis(trifluoromethyl)quinolin-4-yl]-[(2R)-piperidin-2-yl]methanol] | reduced; also recorded: attenuated | inhibited |  |  |  |  |  | 
3 |  |  |  | Nc1ncnc2c1ncn2[C@@H](C=O)O[C@@H](C=O)COP(=O)(O)OP(=O)(O)OP(=O)(O)O [o-ATP, the sodium salt of adenosine 5-triphosphate, oxidized with periodate] |  |  | decreased; also recorded: protected | prevented; also recorded: reduced | significantly reduced | significantly improved | significantly blocked; also recorded: significantly reduced | 5
